Patent US20230278972A1, “SUBSTITUTED HALOALKYL SULFONANILIDE HERBICIDES” (FMC Corporation, priority 2020, published 2023)

What was measured:
Type in all cases: in vivo
[1] = tested on: Ryegrass, Italian (Italian ryegrass, Lolium multiflorum); test: Test A preemergence, Ryegrass, Italian; conditions: Preemergence; for Plant response rating, Ryegrass, Italian: 0 to 100 scale (0 no effect, 100 complete control); for Ryegrass, Italian plant response rating: visual injury on 0 to 100 scale (0 no effect, 100 complete control), approximately 10 days
Procedure, shortened: (§1)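 Greenhouse pot test in a loam–sand blend; compounds delivered in a non-phytotoxic solvent carrying a surfactant, applied either as a directed spray to soil at seeding or over seedlings 2 to 10 cm high with one to two leaves.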

[2] = tested on: Ryegrass, Italian (Italian ryegrass, Lolium multiflorum); test: Test A postemergence, Ryegrass, Italian; conditions: Postemergence, 0 to 100 scale (0 no effect, 100 complete control); for Ryegrass, Italian plant response rating: visual injury vs untreated controls after approx. 10 days
Procedure, shortened: as §1

[3] = tested on: pigweed (Amaranthus retroflexus); test: Test A preemergence, pigweed; conditions: for Plant response rating, Pigweed: 0 to 100 scale (0 no effect, 100 complete control); for Pigweed plant response rating: visual injury on 0 to 100 scale (0 no effect, 100 complete control), approximately 10 days
Procedure, shortened: (§2)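 Preemergence: pigweed seeds in loam soil–sand blend received a directed soil spray of test chemicals in a non-phytotoxic solvent with surfactant. Postemergence: barnyardgrass, wheat and galium in pots of the same soil, 2 to 10 cm tall at one- to two-leaf stage, sprayed with the same formulation.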

[4] = tested on: Foxtail, Giant (giant foxtail, Setaria faberi); test: Test A postemergence, Foxtail, Giant; conditions: Postemergence, 0 to 100 scale (0 no effect, 100 complete control); for Foxtail, Giant plant response rating: visual injury vs untreated controls after approx. 10 days
Procedure, shortened: as §1

[5] = tested on: ragweed (common ragweed, Ambrosia artemisiifolia); test: Test A preemergence, ragweed; conditions: Preemergence; for Plant response rating, Ragweed: 0 to 100 scale (0 no effect, 100 complete control); for Ragweed plant response rating: visual injury on 0 to 100 scale (0 no effect, 100 complete control), approximately 10 days
Procedure, shortened: as §1

[6] = tested on: wheat (Triticum aestivum); test: Test A postemergence, wheat; conditions: Postemergence, 0 to 100 scale (0 no effect, 100 complete control); for Wheat plant response rating: visual injury vs untreated controls after approx. 10 days
Procedure, shortened: as §2

[7] = tested on: pigweed (Amaranthus retroflexus); test: Test A postemergence, pigweed; conditions: Postemergence, 0 to 100 scale (0 no effect, 100 complete control); for Pigweed plant response rating: visual injury vs untreated controls after approx. 10 days
Procedure, shortened: as §1

[8] = tested on: galium (catchweed bedstraw, Galium aparine); test: Test A postemergence, galium; conditions: Postemergence, 0 to 100 scale (0 no effect, 100 complete control); for Galium plant response rating: visual injury vs untreated controls after approx. 10 days
Procedure, shortened: as §2

[9] = tested on: Foxtail, Giant (giant foxtail, Setaria faberi); test: Test A preemergence, Foxtail, Giant; conditions: Preemergence; for Plant response rating, Foxtail, Giant: 0 to 100 scale (0 no effect, 100 complete control); for Foxtail, Giant plant response rating: visual injury on 0 to 100 scale (0 no effect, 100 complete control), approximately 10 days
Procedure, shortened: as §1

corn (Zea mays) = test: Test A postemergence, corn; conditions: Postemergence, 0 to 100 scale (0 no effect, 100 complete control); for Corn plant response rating: visual injury vs untreated controls after approx. 10 days
Procedure, shortened: as §1

kochia (Bassia scoparia) [10] = test: Test A preemergence, kochia; conditions: Preemergence; for Plant response rating, Kochia: 0 to 100 scale (0 no effect, 100 complete control); for Kochia plant response rating: visual injury on 0 to 100 scale (0 no effect, 100 complete control), approximately 10 days
Procedure, shortened: as §1

[11] = tested on: barnyardgrass (Echinochloa crus-galli); test: Test A postemergence, barnyardgrass; conditions: Postemergence, 0 to 100 scale (0 no effect, 100 complete control); for Barnyardgrass plant response rating: visual injury vs untreated controls after approx. 10 days
Procedure, shortened: as §2

kochia (Bassia scoparia) [12] = test: Test A postemergence, kochia; conditions: Postemergence, 0 to 100 scale (0 no effect, 100 complete control); for Kochia plant response rating: visual injury vs untreated controls after approx. 10 days
Procedure, shortened: as §1

[13] = tested on: blackgrass (Alopecurus myosuroides); test: Test A postemergence, blackgrass; conditions: Postemergence, 0 to 100 scale (0 no effect, 100 complete control); for Blackgrass plant response rating: visual injury vs untreated controls after approx. 10 days
Procedure, shortened: as §1

[14] = tested on: ragweed (common ragweed, Ambrosia artemisiifolia); test: Test A postemergence, ragweed; conditions: Postemergence, 0 to 100 scale (0 no effect, 100 complete control); for Ragweed plant response rating: visual injury vs untreated controls after approx. 10 days
Procedure, shortened: as §1

[15] = tested on: barnyardgrass (Echinochloa crus-galli); test: Test A preemergence, barnyardgrass; conditions: Preemergence; for Plant response rating, Barnyardgrass: 0 to 100 scale (0 no effect, 100 complete control); for Barnyardgrass plant response rating: visual injury on 0 to 100 scale (0 no effect, 100 complete control), approximately 10 days
Procedure, shortened: as §1

[16] = 1000 g ai/ha, visual injury, approx. 10 days
[17] = 125 g ai/ha, visual injury approx. 10 days
[18] = 125 g ai/ha, visual injury, approx. 10 days
[19] = 500 g ai/ha, visual injury approx. 10 days

Structure (SMILES): COC(=O)C1CCN(C(=O)c2cc(NS(=O)(=O)C(F)(F)F)c(C)cc2C)CC1 [Compound 50]
- Plant response rating, Ryegrass, Italian ([1]; 1000 g ai/ha): 70
- Plant response rating, Ryegrass, Italian [2, 16]: 90
- Plant response rating, Pigweed ([3]; 1000 g ai/ha): 100
- Plant response rating, Foxtail, Giant [4, 16]: 90
- Plant response rating, Ragweed ([5]; 1000 g ai/ha): 80
- Plant response rating, Wheat [6, 16]: 50
- Plant response rating, Pigweed [7, 16]: 90
- Plant response rating, Galium [8, 16]: 90
- Plant response rating, Foxtail, Giant ([9]; 1000 g ai/ha): 100
- Plant response rating, Corn (corn (Zea mays); [16]): 10
- Plant response rating, Kochia (kochia (Bassia scoparia) [10]; 1000 g ai/ha): 90
- Plant response rating, Barnyardgrass [11, 16]: 60
- Plant response rating, Kochia (kochia (Bassia scoparia) [12]; [16]): 60
- Plant response rating, Blackgrass [13, 16]: 20
- Plant response rating, Ragweed [14, 16]: 50
- Plant response rating, Barnyardgrass ([15]; 1000 g ai/ha): 100

Structure (SMILES): Cc1cc(C#N)c(C(=O)N(C)C)cc1NS(=O)(=O)C(F)(F)F [Compound 134]
- Ryegrass, Italian plant response rating ([1]; 125 g ai/ha): 20
- Plant response rating, Ryegrass, Italian ([1]; 500 g ai/ha): 90
- Plant response rating, Ryegrass, Italian ([2]; 125 g ai/ha): 0
- Ryegrass, Italian plant response rating ([2]; 500 g ai/ha): 0
- Pigweed plant response rating ([3]; 125 g ai/ha): 80
- Plant response rating, Pigweed ([3]; 500 g ai/ha): 90
- Plant response rating, Foxtail, Giant [4, 17]: 0
- Foxtail, Giant plant response rating ([4]; 500 g ai/ha): 10
- Ragweed plant response rating ([5]; 125 g ai/ha): 10
- Plant response rating, Ragweed ([5]; 500 g ai/ha): 30
- Plant response rating, Wheat ([6]; 125 g ai/ha): 0
- Wheat plant response rating ([6]; 500 g ai/ha): 0
- Plant response rating, Pigweed ([7]; 125 g ai/ha): 50
- Pigweed plant response rating ([7]; 500 g ai/ha): 90
- Plant response rating, Galium [8, 17]: 50
- Galium plant response rating ([8]; 500 g ai/ha): 80
- Foxtail, Giant plant response rating ([9]; 125 g ai/ha): 40
- Plant response rating, Foxtail, Giant ([9]; 500 g ai/ha): 100
- Plant response rating, Corn (corn (Zea mays); [17]): 0
- Corn plant response rating (corn (Zea mays); 500 g ai/ha): 0
- Kochia plant response rating (kochia (Bassia scoparia) [10]; 125 g ai/ha): 0
- Plant response rating, Kochia (kochia (Bassia scoparia) [10]; 500 g ai/ha): 0
- Plant response rating, Barnyardgrass [11, 17]: 0
- Barnyardgrass plant response rating ([11]; 500 g ai/ha): 10
- Plant response rating, Kochia (kochia (Bassia scoparia) [12]; [17]): 40
- Kochia plant response rating (kochia (Bassia scoparia) [12]; 500 g ai/ha): 70
- Plant response rating, Blackgrass [13, 17]: 0
- Blackgrass plant response rating ([13]; 500 g ai/ha): 0
- Plant response rating, Ragweed ([14]; 125 g ai/ha): 70
- Ragweed plant response rating ([14]; 500 g ai/ha): 40
- Barnyardgrass plant response rating ([15]; 125 g ai/ha): 0
- Plant response rating, Barnyardgrass ([15]; 500 g ai/ha): 40

Structure (SMILES): COC1CCCN(C(=O)c2cc(NS(=O)(=O)C(F)(F)F)c(C)cc2C)C1 (stereo not shown) [Compound 175]
- Ryegrass, Italian plant response rating ([1]; 125 g ai/ha): 90
- Plant response rating, Ryegrass, Italian ([1]; 500 g ai/ha): 100
- Plant response rating, Ryegrass, Italian ([2]; 125 g ai/ha): 30
- Ryegrass, Italian plant response rating ([2]; 500 g ai/ha): 80
- Pigweed plant response rating ([3]; 125 g ai/ha): 90
- Plant response rating, Pigweed ([3]; 500 g ai/ha): 100
- Plant response rating, Foxtail, Giant ([4]; 125 g ai/ha): 0
- Foxtail, Giant plant response rating ([4]; 500 g ai/ha): 30
- Ragweed plant response rating ([5]; 125 g ai/ha): 80
- Plant response rating, Ragweed ([5]; 500 g ai/ha): 100
- Plant response rating, Wheat ([6]; 125 g ai/ha): 10
- Wheat plant response rating ([6]; 500 g ai/ha): 80
- Plant response rating, Pigweed ([7]; 125 g ai/ha): 50
- Pigweed plant response rating ([7]; 500 g ai/ha): 90
- Plant response rating, Galium ([8]; 125 g ai/ha): 80
- Galium plant response rating ([8]; 500 g ai/ha): 90
- Foxtail, Giant plant response rating ([9]; 125 g ai/ha): 100
- Plant response rating, Foxtail, Giant ([9]; 500 g ai/ha): 100
- Plant response rating, Corn (corn (Zea mays); 125 g ai/ha): 0
- Corn plant response rating (corn (Zea mays); 500 g ai/ha): 10
- Kochia plant response rating (kochia (Bassia scoparia) [10]; 125 g ai/ha): 90
- Plant response rating, Kochia (kochia (Bassia scoparia) [10]; 500 g ai/ha): 100
- Plant response rating, Barnyardgrass ([11]; 125 g ai/ha): 20
- Barnyardgrass plant response rating ([11]; 500 g ai/ha): 90
- Plant response rating, Kochia (kochia (Bassia scoparia) [12]; 125 g ai/ha): 10
- Kochia plant response rating (kochia (Bassia scoparia) [12]; 500 g ai/ha): 50
- Plant response rating, Blackgrass ([13]; 125 g ai/ha): 0
- Blackgrass plant response rating ([13]; 500 g ai/ha): 20
- Plant response rating, Ragweed ([14]; 125 g ai/ha): 50
- Ragweed plant response rating ([14]; 500 g ai/ha): 90
- Barnyardgrass plant response rating ([15]; 125 g ai/ha): 90
- Plant response rating, Barnyardgrass ([15]; 500 g ai/ha): 100

Structure (SMILES): Cc1cc(C)c(C2=NOC3(CCCCCC3)C2)cc1NS(=O)(=O)C(F)(F)F [Compound 277]
- Plant response rating, Ryegrass, Italian [1, 18]: 100
- Ryegrass, Italian plant response rating ([1]; 500 g ai/ha): 100
- Plant response rating, Ryegrass, Italian ([2]; 125 g ai/ha): 0
- Plant response rating, Ryegrass, Italian [2, 19]: 60
- Plant response rating, Pigweed [3, 18]: 60
- Pigweed plant response rating ([3]; 500 g ai/ha): 100
- Plant response rating, Foxtail, Giant ([4]; 125 g ai/ha): 30
- Plant response rating, Foxtail, Giant [4, 19]: 90
- Plant response rating, Ragweed [5, 18]: 10
- Ragweed plant response rating ([5]; 500 g ai/ha): 80
- Plant response rating, Wheat ([6]; 125 g ai/ha): 0
- Plant response rating, Wheat [6, 19]: 70
- Plant response rating, Pigweed ([7]; 125 g ai/ha): 30
- Plant response rating, Pigweed [7, 19]: 70
- Plant response rating, Galium ([8]; 125 g ai/ha): 100
- Plant response rating, Galium [8, 19]: 100
- Plant response rating, Foxtail, Giant [9, 18]: 100
- Foxtail, Giant plant response rating ([9]; 500 g ai/ha): 100
- Plant response rating, Corn (corn (Zea mays); 125 g ai/ha): 10
- Plant response rating, Corn (corn (Zea mays); [19]): 70
- Plant response rating, Kochia (kochia (Bassia scoparia) [10]; [18]): 90
- Kochia plant response rating (kochia (Bassia scoparia) [10]; 500 g ai/ha): 100
- Plant response rating, Barnyardgrass ([11]; 125 g ai/ha): 20
- Plant response rating, Barnyardgrass [11, 19]: 90
- Plant response rating, Kochia (kochia (Bassia scoparia) [12]; 125 g ai/ha): 10
- Plant response rating, Kochia (kochia (Bassia scoparia) [12]; [19]): 40
- Plant response rating, Blackgrass ([13]; 125 g ai/ha): 10
- Plant response rating, Blackgrass [13, 19]: 60
- Plant response rating, Ragweed ([14]; 125 g ai/ha): 20
- Plant response rating, Ragweed [14, 19]: 60
- Plant response rating, Barnyardgrass [15, 18]: 100
- Barnyardgrass plant response rating ([15]; 500 g ai/ha): 100
